# Reference: PMC4965013, “Open Source Drug Discovery with the Malaria Box Compound Collection for Neglected Diseases and Beyond” (PLoS Pathogens, 2016)
# Experiments:
# P. falciparum = test: EC50 listed in S2 Table Metabolomics (used to set the concentration tested); assay type: cell-based; settings: Plasmodium falciparum; EC50 used for Factor_XEC50 in metabolomics; read-out: EC50_nM
# [1] = test system: P. falciparum 3D7 trophozoites; test: Metabolomic fingerprint profiling LC-MS; assay type: cell-based, Plasmodium falciparum; parameters: UDP-D-glucose / ADP-D-glucose: unit not given here; settings: for Acetyllysine / N-acetyl-L-ornithine / N-carbamoyl-L-aspartate / NADPH / dAMP / dCMP / dTDP / dTMP / dTTP / dihydroorotate / orotate / DLH / DLS/SDL/SID / PD / PEE / PVNF / 3-phosphoglycerate / ADP-D-glucose / ATP / CDP / D-sedoheptulose-1/7-phosphate / FAD / GMP / NAD+ / NADP+ / Octoluse Bisphosphate / Pyroglutamic acid / UDP-D-glucose / UDP-D-glucuronate / UDP-N-acetyl-glucosamine / UDP / UMP / UTP / a-ketoglutarate / citrate/isocitrate / cytidine / dATP / dGMP/AMP / fumarate / glucose-1/6-phosphate / glycerate / guanine / guanosine / hypoxanthine / indole / inosine / nicotinate / ornithine / phosphoenolpyruvate / pyruvate / ribose-phosphate / sarcosine/alanine / sn-glycerol-3-phosphate / succinate/methylmalonic acid / uridine / xanthosine: S2 Table Metabolomics; for Acetyllysine: metabolite Acetyllysine; for N-acetyl-L-ornithine: metabolite N-acetyl-L-ornithine; for N-carbamoyl-L-aspartate: metabolite N-carbamoyl-L-aspartate; for NADPH: metabolite NADPH; for dAMP: metabolite dAMP; for dCMP: metabolite dCMP; for dTDP: metabolite dTDP; for dTMP: metabolite dTMP; for dTTP: metabolite dTTP; for dihydroorotate: metabolite dihydroorotate; for orotate: metabolite orotate; for DLH: peptide DLH; for DLS/SDL/SID: peptide DLS/SDL/SID; for PD: peptide PD; for PEE: peptide PEE; for PVNF: peptide PVNF; for 3-phosphoglycerate: metabolite 3-phosphoglycerate; for ADP-D-glucose: metabolite ADP-D-glucose; for ATP: metabolite ATP; for CDP: metabolite CDP; for CDP / D-sedoheptulose-1/7-phosphate / GMP / Octoluse Bisphosphate / UDP / UMP / UTP / citrate/isocitrate / dGMP/AMP / fumarate / glucose-1/6-phosphate / glycerate / guanine / guanosine / inosine / pyruvate / sarcosine/alanine / succinate/methylmalonic acid / uridine / xanthosine: change in metabolite level after compound treatment; for D-sedoheptulose-1/7-phosphate: metabolite D-sedoheptulose-1/7-phosphate; for FAD: metabolite FAD; for GMP: metabolite GMP; for NAD+: metabolite NAD+; for NADP+: metabolite NADP+; for Octoluse Bisphosphate: metabolite Octoluse Bisphosphate; for Pyroglutamic acid: metabolite Pyroglutamic acid; for UDP-D-glucose: metabolite UDP-D-glucose; for UDP-D-glucuronate: metabolite UDP-D-glucuronate; for UDP-N-acetyl-glucosamine: metabolite UDP-N-acetyl-glucosamine; for UDP: metabolite UDP; for UMP: metabolite UMP; for UTP: metabolite UTP; for a-ketoglutarate: metabolite a-ketoglutarate; for citrate/isocitrate: metabolite citrate/isocitrate; for cytidine: metabolite cytidine; for dATP: metabolite dATP; for dGMP/AMP: metabolite dGMP/AMP; for fumarate: metabolite fumarate; for glucose-1/6-phosphate: metabolite glucose-1/6-phosphate; for glycerate: metabolite glycerate; for guanine: metabolite guanine; for guanosine: metabolite guanosine; for hypoxanthine: metabolite hypoxanthine; for indole: metabolite indole; for inosine: metabolite inosine; for 2_3-Diphosphoglyceric acid / 4-phosphopantothenate / 6-phospho-D-gluconate / FMN / IMP / Pyrophosphate / Sedoheptoluse bisphosphate / cyclic-AMP / glutathione disulfide / lactate / myo-inositol: metabolite level change after treatment; for nicotinate: metabolite nicotinate; for ornithine: metabolite ornithine; for phosphoenolpyruvate: metabolite phosphoenolpyruvate; for pyruvate: metabolite pyruvate; for ribose-phosphate: metabolite ribose-phosphate; for sarcosine/alanine: metabolite sarcosine/alanine; for sn-glycerol-3-phosphate: metabolite sn-glycerol-3-phosphate; for succinate/methylmalonic acid: metabolite succinate/methylmalonic acid; for uridine: metabolite uridine; for xanthosine: metabolite xanthosine
smiles,measurement,setting,value
COc1ccc2c(c1)OC(O)(C(F)(F)C(F)(F)F)CC2=O (stereo not shown) [MMV007839],EC50,P. falciparum,283 nM
same,Acetyllysine,[1],-0.1495
same,N-acetyl-L-ornithine,[1],-0.3633
same,N-carbamoyl-L-aspartate,[1],-1.795
same,NADPH,[1],-0.4001
same,dAMP,[1],-1.537
same,dCMP,[1],-0.8612
same,dTDP,[1],-1.865
same,dTMP,[1],-1.855
same,dTTP,[1],-0.1915
same,dihydroorotate,[1],-1.4167
same,orotate,[1],-2.224
same,DLH,[1],-0.6186
same,DLS/SDL/SID,[1],-1.11
same,PD,[1],0.5838
same,PEE,[1],-0.1635
same,PVNF,[1],-0.3342
same,3-phosphoglycerate,[1],0.9102
same,ADP-D-glucose,[1],-0.2
same,ATP,[1],-0.07659
same,CDP,[1],-1.957
same,D-sedoheptulose-1/7-phosphate,[1],-0.1553
same,FAD,[1],-0.4884
same,GMP,[1],-0.7332
same,NAD+,[1],-0.1711
same,NADP+,[1],-0.2719
same,Octoluse Bisphosphate,[1],0.7306
same,Pyroglutamic acid,[1],0.1304
same,UDP-D-glucose,[1],-0.2042
same,UDP-D-glucuronate,[1],-0.2026
same,UDP-N-acetyl-glucosamine,[1],-0.2915
same,UDP,[1],-2.077
same,UMP,[1],-0.8849
same,UTP,[1],-0.5295
same,a-ketoglutarate,[1],-0.1816
same,citrate/isocitrate,[1],0.3799
same,cytidine,[1],0.004906
same,dATP,[1],-0.1041
same,dGMP/AMP,[1],-1.779
same,fumarate,[1],-0.2064
same,glucose-1/6-phosphate,[1],-0.5084
same,glycerate,[1],3.453
same,guanine,[1],-0.7539
same,guanosine,[1],-0.466
same,hypoxanthine,[1],0.3062
same,indole,[1],0.0845
same,inosine,[1],0.6443
same,2_3-Diphosphoglyceric acid,[1],0.2433
same,4-phosphopantothenate,[1],-0.5485
same,6-phospho-D-gluconate,[1],0.05032
same,FMN,[1],-0.6664
same,IMP,[1],-0.6059
same,Pyrophosphate,[1],0.1105
same,Sedoheptoluse bisphosphate,[1],0.5834
same,cyclic-AMP,[1],-1.0489
same,glutathione disulfide,[1],-0.5477
same,lactate,[1],0.3101
same,myo-inositol,[1],0.232
same,nicotinate,[1],0.1131
same,ornithine,[1],0.4692
same,phosphoenolpyruvate,[1],1.103
same,pyruvate,[1],2.0227
same,ribose-phosphate,[1],0.6152
same,sarcosine/alanine,[1],0.4418
same,sn-glycerol-3-phosphate,[1],0.2795
same,succinate/methylmalonic acid,[1],-0.36
same,uridine,[1],-0.244
same,xanthosine,[1],-0.1676
CCOC(=O)c1cnc2c(C)cc(C)cc2c1Nc1ccc(OC)c(OC)c1 [MMV008294],EC50,P. falciparum,232 nM
same,Acetyllysine,[1],-0.3425
same,N-acetyl-L-ornithine,[1],-0.09501
same,N-carbamoyl-L-aspartate,[1],2.682
same,NADPH,[1],1.75
same,dAMP,[1],0.2089
same,dCMP,[1],-0.6198
same,dTDP,[1],-0.4672
same,dTMP,[1],-0.4876
same,dTTP,[1],-1.144
same,dihydroorotate,[1],3.3871
same,orotate,[1],-0.7416
same,DLH,[1],-0.5675
same,DLS/SDL/SID,[1],-0.4346
same,PD,[1],-0.1287
same,PEE,[1],-0.648
same,PVNF,[1],-0.7723
same,3-phosphoglycerate,[1],-0.683
same,ADP-D-glucose,[1],-0.352
same,ATP,[1],-0.07176
same,CDP,[1],-0.1705
same,D-sedoheptulose-1/7-phosphate,[1],-0.3446
same,FAD,[1],0.0322
same,GMP,[1],-0.1695
same,NAD+,[1],-0.3043
same,NADP+,[1],-0.3797
same,Octoluse Bisphosphate,[1],-0.4297
same,Pyroglutamic acid,[1],0.3043
same,UDP-D-glucose,[1],-0.27
same,UDP-D-glucuronate,[1],-0.2831
same,UDP-N-acetyl-glucosamine,[1],-0.5063
same,UDP,[1],-0.5787
same,UMP,[1],-1.283
same,UTP,[1],-1.136
same,a-ketoglutarate,[1],-0.236
same,citrate/isocitrate,[1],0.7822
same,cytidine,[1],0.0959
same,dATP,[1],1.0046
same,dGMP/AMP,[1],-0.5258
same,fumarate,[1],-0.9618
same,glucose-1/6-phosphate,[1],0.01885
same,glycerate,[1],0.4536
same,guanine,[1],0.3469
same,guanosine,[1],2.083
same,hypoxanthine,[1],0.2152
same,indole,[1],0.4569
same,inosine,[1],0.05445
same,2_3-Diphosphoglyceric acid,[1],-0.768
same,4-phosphopantothenate,[1],-0.7166
same,6-phospho-D-gluconate,[1],-0.1153
same,FMN,[1],0.06908
same,IMP,[1],-0.2706
same,Pyrophosphate,[1],-0.2511
same,Sedoheptoluse bisphosphate,[1],-0.4052
same,cyclic-AMP,[1],-0.1956
same,glutathione disulfide,[1],-0.2281
same,lactate,[1],0.2967
same,myo-inositol,[1],0.2424
same,nicotinate,[1],0.04647
same,ornithine,[1],-0.4808
same,phosphoenolpyruvate,[1],-0.6158
same,pyruvate,[1],0.09912
same,ribose-phosphate,[1],-0.7165
same,sarcosine/alanine,[1],-0.5269
same,sn-glycerol-3-phosphate,[1],-0.7886
same,succinate/methylmalonic acid,[1],0.008672
same,uridine,[1],-0.03724
same,xanthosine,[1],0.1462
